Measurements taken from ChEMBL document CHEMBL4831520, “Discovery of First-in-Class Dual PARP and EZH2 Inhibitors for Triple-Negative Breast Cancer with Wild-Type BRCA” (J Med Chem, 2021).

system: MCF7; experiment: cells; assay type: functional, cell-based; details: Homo sapiens, MCF7, 72 h
Description: Antiproliferative activity against human MCF7 cells assessed as cell viability after 72 hrs by MTT assay

Row | Compound | IC50 [µM]
1 | Cc1cc(C)c(CNC(=O)c2cc(-c3ccc(N4CCN(C(=O)c5cc(Cc6n[nH]c(=O)c7ccccc67)ccc5F)CC4)nc3)cc(N(C)C)c2C)c(=O)[nH]1 | 38
2 | Cc1cc(C)c(CNC(=O)c2cc(-c3ccc(N4CCN(C(=O)c5cc(Cc6n[nH]c(=O)c7ccccc67)ccc5F)CC4)nc3)cc(NC(C)C)c2C)c(=O)[nH]1 | > 50
3 | COC1CCN(C(=O)c2cc(Cc3n[nH]c(=O)c4ccccc34)ccc2F)CC1 [AZD2461] | > 50
4 | CCN(c1cc(-c2ccc(N3CCN(C(=O)c4cc(Cc5n[nH]c(=O)c6ccccc56)ccc4F)CC3)nc2)cc(C(=O)NCc2c(C)cc(C)[nH]c2=O)c1C)C1CCOCC1 | > 50

Second part, the compound after the results:

Row | IC50 [µM] | Compound
5 | > 50 | Cc1cc(C)c(CNC(=O)c2cc(-c3ccc(N4CCN(C(=O)c5cc(Cc6n[nH]c(=O)c7ccccc67)ccc5F)CC4)nc3)cc3c2cnn3C)c(=O)[nH]1
6 | 26.2 | CCN(C(C)=O)c1cc(-c2ccc(N3CCN(C(=O)c4cc(Cc5n[nH]c(=O)c6ccccc56)ccc4F)CC3)nc2)cc(C(=O)NCc2c(C)cc(C)[nH]c2=O)c1C
7 | 30.4 | Cc1cc(C)c(CNC(=O)c2cc(-c3ccc(N4CCN(C(=O)c5cc(Cc6n[nH]c(=O)c7ccccc67)ccc5F)CC4)nc3)cc(NC(=O)CCC(=O)N(C)C)c2C)c(=O)[nH]1
8 | > 50 | C=CCn1ncc2c(C(=O)NCc3c(C)cc(C)[nH]c3=O)cc(-c3ccc(N4CCN(C(=O)c5cc(Cc6n[nH]c(=O)c7ccccc67)ccc5F)CC4)nc3)cc21

system: MCF-10A; experiment: cells; assay type: ADME, cell-based; details: Homo sapiens, 72 h
Description: Antiproliferative activity against human MCF-10A cells assessed as cell viability after 72 hrs by MTT assay

Row | Compound | IC50 [µM]
9 | Cc1cc(C)c(CNC(=O)c2cc(-c3ccc(N4CCN(C(=O)c5cc(Cc6n[nH]c(=O)c7ccccc67)ccc5F)CC4)nc3)cc3c2cnn3C)c(=O)[nH]1 | > 50
10 | CCN(C(C)=O)c1cc(-c2ccc(N3CCN(C(=O)c4cc(Cc5n[nH]c(=O)c6ccccc56)ccc4F)CC3)nc2)cc(C(=O)NCc2c(C)cc(C)[nH]c2=O)c1C | > 50
11 | Cc1cc(C)c(CNC(=O)c2cc(-c3ccc(N4CCN(C(=O)c5cc(Cc6n[nH]c(=O)c7ccccc67)ccc5F)CC4)nc3)cc(N(C)C)c2C)c(=O)[nH]1 | > 50
12 | Cc1cc(C)c(CNC(=O)c2cc(-c3ccc(N4CCN(C(=O)c5cc(Cc6n[nH]c(=O)c7ccccc67)ccc5F)CC4)nc3)cc(NC(C)C)c2C)c(=O)[nH]1 | > 50
13 | COC1CCN(C(=O)c2cc(Cc3n[nH]c(=O)c4ccccc34)ccc2F)CC1 [AZD2461] | > 50
14 | Cc1cc(C)c(CNC(=O)c2cc(-c3ccc(N4CCN(C(=O)c5cc(Cc6n[nH]c(=O)c7ccccc67)ccc5F)CC4)nc3)cc(NC(=O)CCC(=O)N(C)C)c2C)c(=O)[nH]1 | > 50
15 | C=CCn1ncc2c(C(=O)NCc3c(C)cc(C)[nH]c3=O)cc(-c3ccc(N4CCN(C(=O)c5cc(Cc6n[nH]c(=O)c7ccccc67)ccc5F)CC4)nc3)cc21 | > 50
16 | CCN(c1cc(-c2ccc(N3CCN(C(=O)c4cc(Cc5n[nH]c(=O)c6ccccc56)ccc4F)CC3)nc2)cc(C(=O)NCc2c(C)cc(C)[nH]c2=O)c1C)C1CCOCC1 | > 50

system: MDA-MB-468; experiment: cells; assay type: functional, cell-based; details: Homo sapiens, MDA-MB-468, 72 h
Description: Antiproliferative activity against human MDA-MB-468 cells assessed as cell viability after 72 hrs by MTT assay

Row | Compound | IC50 [µM]
17 | Cc1cc(C)c(CNC(=O)c2cc(-c3ccc(N4CCN(C(=O)c5cc(Cc6n[nH]c(=O)c7ccccc67)ccc5F)CC4)nc3)cc(N(C)C)c2C)c(=O)[nH]1 | 15.2
18 | Cc1cc(C)c(CNC(=O)c2cc(-c3ccc(N4CCN(C(=O)c5cc(Cc6n[nH]c(=O)c7ccccc67)ccc5F)CC4)nc3)cc(NC(C)C)c2C)c(=O)[nH]1 | 16.5
19 | COC1CCN(C(=O)c2cc(Cc3n[nH]c(=O)c4ccccc34)ccc2F)CC1 [AZD2461] | 35.6
20 | CCN(c1cc(-c2ccc(N3CCN(C(=O)c4cc(Cc5n[nH]c(=O)c6ccccc56)ccc4F)CC3)nc2)cc(C(=O)NCc2c(C)cc(C)[nH]c2=O)c1C)C1CCOCC1 | > 50

The remaining lines, values ahead:

Row | IC50 [µM] | Compound
21 | > 50 | Cc1cc(C)c(CNC(=O)c2cc(-c3ccc(N4CCN(C(=O)c5cc(Cc6n[nH]c(=O)c7ccccc67)ccc5F)CC4)nc3)cc3c2cnn3C)c(=O)[nH]1
22 | 9.56 | CCN(C(C)=O)c1cc(-c2ccc(N3CCN(C(=O)c4cc(Cc5n[nH]c(=O)c6ccccc56)ccc4F)CC3)nc2)cc(C(=O)NCc2c(C)cc(C)[nH]c2=O)c1C
23 | 8.24 | Cc1cc(C)c(CNC(=O)c2cc(-c3ccc(N4CCN(C(=O)c5cc(Cc6n[nH]c(=O)c7ccccc67)ccc5F)CC4)nc3)cc(NC(=O)CCC(=O)N(C)C)c2C)c(=O)[nH]1
24 | > 50 | C=CCn1ncc2c(C(=O)NCc3c(C)cc(C)[nH]c3=O)cc(-c3ccc(N4CCN(C(=O)c5cc(Cc6n[nH]c(=O)c7ccccc67)ccc5F)CC4)nc3)cc21

system: MDA-MB-231; experiment: cells; assay type: functional, cell-based; details: Homo sapiens, MDA-MB-231, 72 h
Description: Antiproliferative activity against human MDA-MB-231 cells assessed as cell viability after 72 hrs by MTT assay

Row | Compound | IC50 [µM]
25 | Cc1cc(C)c(CNC(=O)c2cc(-c3ccc(N4CCN(C(=O)c5cc(Cc6n[nH]c(=O)c7ccccc67)ccc5F)CC4)nc3)cc(N(C)C)c2C)c(=O)[nH]1 | 23.2
26 | Cc1cc(C)c(CNC(=O)c2cc(-c3ccc(N4CCN(C(=O)c5cc(Cc6n[nH]c(=O)c7ccccc67)ccc5F)CC4)nc3)cc(NC(C)C)c2C)c(=O)[nH]1 | > 50
27 | COC1CCN(C(=O)c2cc(Cc3n[nH]c(=O)c4ccccc34)ccc2F)CC1 [AZD2461] | 36.9
28 | CCN(c1cc(-c2ccc(N3CCN(C(=O)c4cc(Cc5n[nH]c(=O)c6ccccc56)ccc4F)CC3)nc2)cc(C(=O)NCc2c(C)cc(C)[nH]c2=O)c1C)C1CCOCC1 | > 50

Second part, the compound after the results:

Row | IC50 [µM] | Compound
29 | > 50 | Cc1cc(C)c(CNC(=O)c2cc(-c3ccc(N4CCN(C(=O)c5cc(Cc6n[nH]c(=O)c7ccccc67)ccc5F)CC4)nc3)cc3c2cnn3C)c(=O)[nH]1
30 | 18.4 | CCN(C(C)=O)c1cc(-c2ccc(N3CCN(C(=O)c4cc(Cc5n[nH]c(=O)c6ccccc56)ccc4F)CC3)nc2)cc(C(=O)NCc2c(C)cc(C)[nH]c2=O)c1C
31 | 22.1 | Cc1cc(C)c(CNC(=O)c2cc(-c3ccc(N4CCN(C(=O)c5cc(Cc6n[nH]c(=O)c7ccccc67)ccc5F)CC4)nc3)cc(NC(=O)CCC(=O)N(C)C)c2C)c(=O)[nH]1
32 | > 50 | C=CCn1ncc2c(C(=O)NCc3c(C)cc(C)[nH]c3=O)cc(-c3ccc(N4CCN(C(=O)c5cc(Cc6n[nH]c(=O)c7ccccc67)ccc5F)CC4)nc3)cc21
